Several values for one entry are separate records, joined by “and”; a condition that tells them apart may be missing. Identical values can stand only once.
Test system: 628569-122-R-J1-PDC complex spheroid viability
Experiment: Anticancer human tumor 628569-122-R-J1-PDC patient-derived head and neck squamous carcinoma cell line growth inhibition [CLK]
Details: for IC50: curve of first compound; for viability, T/C: stronger effect = lower value
How it was run: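 Multi-cell-type spheroids combined patient-derived tumor cells with HUVEC endothelial cells and human mesenchymal stem cells. Paired agents were dosed in half-log steps down from about clinical Cmax, or from 10 microM where Cmax was unknown.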

[1] = second compound 0.0316 µM, first compound 0.0316 µM
[2] = second compound 0.0316 µM, first compound 0.1 µM
[3] = second compound 0.0316 µM, first compound 0.316 µM
[4] = second compound 0.0316 µM, first compound 1 µM
[5] = second compound 0.0316 µM, first compound 3.16 µM
[6] = second compound 0.0316 µM, first compound 10 µM
[7] = second compound 0.1 µM, first compound 0.0316 µM
[8] = second compound 0.1 µM, first compound 0.1 µM
[9] = second compound 0.1 µM, first compound 0.316 µM
[10] = second compound 0.1 µM, first compound 1 µM
[11] = second compound 0.1 µM, first compound 3.16 µM
[12] = second compound 0.1 µM, first compound 10 µM
[13] = second compound 0.316 µM, first compound 0.0316 µM
[14] = second compound 0.316 µM, first compound 0.1 µM
[15] = second compound 0.316 µM, first compound 0.316 µM
[16] = second compound 0.316 µM, first compound 1 µM
[17] = second compound 0.316 µM, first compound 3.16 µM
[18] = second compound 0.316 µM, first compound 10 µM
[19] = second compound 1 µM, first compound 0.0316 µM
[20] = second compound 1 µM, first compound 0.1 µM
[21] = second compound 1 µM, first compound 0.316 µM
[22] = second compound 1 µM, first compound 1 µM
[23] = second compound 1 µM, first compound 3.16 µM
[24] = second compound 1 µM, first compound 10 µM
[25] = second compound 3.16 µM, first compound 0.0316 µM
[26] = second compound 3.16 µM, first compound 0.1 µM
[27] = second compound 3.16 µM, first compound 0.316 µM
[28] = second compound 3.16 µM, first compound 1 µM
[29] = second compound 3.16 µM, first compound 3.16 µM
[30] = second compound 3.16 µM, first compound 10 µM
[31] = second compound 10 µM, first compound 0.0316 µM
[32] = second compound 10 µM, first compound 0.1 µM
[33] = second compound 10 µM, first compound 0.316 µM
[34] = second compound 10 µM, first compound 1 µM
[35] = second compound 10 µM, first compound 3.16 µM
[36] = second compound 10 µM, first compound 10 µM
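Further: spheroids exposed to agents for seven days before readout.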
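Wherever viability, T/C is given: 100% = DMSO vehicle control viability.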

Structure (SMILES): C=C(F)C(=O)N1CCN(c2nc(OCC3CCCN3C)nc3c2CCN(c2cccc4cccc(Cl)c24)C3)CC1CC#N (stereo unspecified) + CNC(=O)c1ccc(Nc2nc(OC3CCCC3)c3c(-c4ccc5nc(C)oc5c4)c[nH]c3n2)c(OC)c1
- IC50 (second compound 0.0316 µM): 5890 nM
- IC50 (second compound 0.1 µM): 4250 nM
- IC50 (second compound 0.316 µM): 3640 nM
- IC50 (second compound 1 µM): 31.6 nM
- IC50 (second compound 3.16 µM): < 31.6 nM
- IC50 (second compound 10 µM): < 31.6 nM
- viability, T/C [1]: 84.5%
- viability, T/C [2]: 85.8%
- viability, T/C [3]: 88.8%
- viability, T/C [4]: 112%
- viability, T/C [5]: 126%
- viability, T/C [6]: 8.03%
- viability, T/C [7]: 58.8%
- viability, T/C [8]: 53.8%
- viability, T/C [9]: 65.5%
- viability, T/C [10]: 64%
- viability, T/C [11]: 90.2%
- viability, T/C [12]: 1.94%
- viability, T/C [13]: 54.6%
- viability, T/C [14]: 47.9%
- viability, T/C [15]: 49.3%
- viability, T/C [16]: 56.3%
- viability, T/C [17]: 72.1%
- viability, T/C [18]: 6.63%
- viability, T/C [19]: 46.5%
- viability, T/C [20]: 42.9%
- viability, T/C [21]: 43.7%
- viability, T/C [22]: 49%
- viability, T/C [23]: 62.8%
- viability, T/C [24]: 1.4%
- viability, T/C [25]: 46.2%
- viability, T/C [26]: 43.3%
- viability, T/C [27]: 45.4%
- viability, T/C [28]: 51.5%
- viability, T/C [29]: 48.1%
- viability, T/C [30]: 0.86%
- viability, T/C [31]: 53.9%
- viability, T/C [32]: 36.1%
- viability, T/C [33]: 46.7%
- viability, T/C [34]: 54.5%
- viability, T/C [35]: 43.8%
- viability, T/C [36]: 5.33%

Structure (SMILES): Nc1ccccc1NC(=O)c1ccc(CNC(=O)OCc2cccnc2)cc1 + CN1CCN(c2cc(C(=O)Nc3cc4cc(-c5cnn(C)c5)ccc4cn3)ccn2)CC1
- IC50 (second compound 0.0316 µM): 7610 nM
- IC50 (second compound 0.1 µM): 4780 nM
- IC50 (second compound 0.316 µM): < 31.6 nM
- IC50 (second compound 1 µM): < 31.6 nM
- IC50 (second compound 3.16 µM): < 31.6 nM
- IC50 (second compound 10 µM): < 31.6 nM
- viability, T/C [1]: 93.5%
- viability, T/C [2]: 103%
- viability, T/C [3]: 98.4%
- viability, T/C [4]: 162%
- viability, T/C [5]: 153%
- viability, T/C [6]: 27.7%
- viability, T/C [7]: 54.7%
- viability, T/C [8]: 63%
- viability, T/C [9]: 76.5%
- viability, T/C [10]: 90.9%
- viability, T/C [11]: 91.7%
- viability, T/C [12]: 4.63%
- viability, T/C [13]: 40.1%
- viability, T/C [14]: 30.8%
- viability, T/C [15]: 37.5%
- viability, T/C [16]: 30.2%
- viability, T/C [17]: 7.28%
- viability, T/C [18]: 4.48%
- viability, T/C [19]: 12.7%
- viability, T/C [20]: 7.04%
- viability, T/C [21]: 7.87%
- viability, T/C [22]: 6.5%
- viability, T/C [23]: 7%
- viability, T/C [24]: 7.23%
- viability, T/C [25]: 7.85%
- viability, T/C [26]: 3.97%
- viability, T/C [27]: 7.25%
- viability, T/C [28]: 5.7%
- viability, T/C [29]: 8.72%
- viability, T/C [30]: 6.19%
- viability, T/C [31]: 4.78%
- viability, T/C [32]: 5.48%
- viability, T/C [33]: 5.47%
- viability, T/C [34]: 5.41%
- viability, T/C [35]: 10%
- viability, T/C [36]: 1.39%

Structure (SMILES): CC(CO)NC(=O)c1cc(-c2ccc(Cl)cc2)nn(-c2cnn(C)c2)c1=O (stereo unspecified) + CN1CCN(c2cc(C(=O)Nc3cc4cc(-c5cnn(C)c5)ccc4cn3)ccn2)CC1
- IC50 (second compound 0.0316 µM): > 10000 nM
- IC50 (second compound 0.1 µM): > 10000 nM
- IC50 (second compound 0.316 µM): > 10000 nM
- IC50 (second compound 1 µM): < 31.6 nM
- IC50 (second compound 3.16 µM): < 31.6 nM
- IC50 (second compound 10 µM): < 31.6 nM
- viability, T/C [1]: 141%
- viability, T/C [2]: 195%
- viability, T/C [3]: 196%
- viability, T/C [4]: 216%
- viability, T/C [5]: 205%
- viability, T/C [6]: 173%
- viability, T/C [7]: 113%
- viability, T/C [8]: 142%
- viability, T/C [9]: 151%
- viability, T/C [10]: 152%
- viability, T/C [11]: 152%
- viability, T/C [12]: 148%
- viability, T/C [13]: 62.6%
- viability, T/C [14]: 63.5%
- viability, T/C [15]: 68.9%
- viability, T/C [16]: 77.1%
- viability, T/C [17]: 73%
- viability, T/C [18]: 76.2%
- viability, T/C [19]: 8.6%
- viability, T/C [20]: 5.35%
- viability, T/C [21]: 7.74%
- viability, T/C [22]: 6.71%
- viability, T/C [23]: 4.91%
- viability, T/C [24]: 5.72%
- viability, T/C [25]: 7.85%
- viability, T/C [26]: 5.72%
- viability, T/C [27]: 7.76%
- viability, T/C [28]: 7.17%
- viability, T/C [29]: 7.12%
- viability, T/C [30]: 7.82%
- viability, T/C [31]: 4.35%
- viability, T/C [32]: 2.99%
- viability, T/C [33]: 3.66%
- viability, T/C [34]: 2.79%
- viability, T/C [35]: 4.67%
- viability, T/C [36]: 2.07%

Structure (SMILES): CC(Nc1ccc2c(c1)OCCn1cc(N3C(=O)OCC3C(F)F)nc1-2)C(N)=O (stereo unspecified) + CNC(=O)c1ccc(Nc2nc(OC3CCCC3)c3c(-c4ccc5nc(C)oc5c4)c[nH]c3n2)c(OC)c1
- IC50 (second compound 0.0316 µM): 269 nM
- IC50 (second compound 0.1 µM): 31.7 nM
- IC50 (second compound 0.316 µM): < 31.6 nM
- IC50 (second compound 1 µM): < 31.6 nM
- IC50 (second compound 3.16 µM): < 31.6 nM
- IC50 (second compound 10 µM): < 31.6 nM
- viability, T/C [1]: 67.3%
- viability, T/C [2]: 61.1%
- viability, T/C [3]: 48.2%
- viability, T/C [4]: 34.2%
- viability, T/C [5]: 41.8%
- viability, T/C [6]: 26.5%
- viability, T/C [7]: 55.7%
- viability, T/C [8]: 38.5%
- viability, T/C [9]: 31.9%
- viability, T/C [10]: 40.5%
- viability, T/C [11]: 38.2%
- viability, T/C [12]: 17.7%
- viability, T/C [13]: 41%
- viability, T/C [14]: 44.8%
- viability, T/C [15]: 36.5%
- viability, T/C [16]: 43.1%
- viability, T/C [17]: 32.3%
- viability, T/C [18]: 16.9%
- viability, T/C [19]: 39.5%
- viability, T/C [20]: 32.6%
- viability, T/C [21]: 29.6%
- viability, T/C [22]: 27.5%
- viability, T/C [23]: 23.4%
- viability, T/C [24]: 13.5%
- viability, T/C [25]: 37.1%
- viability, T/C [26]: 31.7%
- viability, T/C [27]: 26.8%
- viability, T/C [28]: 22.2%
- viability, T/C [29]: 20.8%
- viability, T/C [30]: 16.3%
- viability, T/C [31]: 34.7%
- viability, T/C [32]: 28.2%
- viability, T/C [33]: 26.5%
- viability, T/C [34]: 25.9%
- viability, T/C [35]: 23.2%
- viability, T/C [36]: 13.2%

Structure (SMILES): C=CC(=O)N1CCN(c2nc(=O)n(-c3c(C)ccnc3C(C)C)c3nc(-c4c(O)cccc4F)c(F)cc23)C(C)C1 (stereo unspecified) + CN1CCN(c2cc(C(=O)Nc3cc4cc(-c5cnn(C)c5)ccc4cn3)ccn2)CC1
- IC50 (second compound 0.0316 µM): > 10000 nM
- IC50 (second compound 0.1 µM): > 10000 nM
- IC50 (second compound 0.316 µM): < 31.6 nM
- IC50 (second compound 1 µM): < 31.6 nM
- IC50 (second compound 3.16 µM): < 31.6 nM
- IC50 (second compound 10 µM): < 31.6 nM
- viability, T/C [1]: 104%
- viability, T/C [2]: 89.4%
- viability, T/C [3]: 110%
- viability, T/C [4]: 113%
- viability, T/C [5]: 132%
- viability, T/C [6]: 140%
- viability, T/C [7]: 51.7%
- viability, T/C [8]: 65.7%
- viability, T/C [9]: 77.1%
- viability, T/C [10]: 81.3%
- viability, T/C [11]: 86.2%
- viability, T/C [12]: 71.4%
- viability, T/C [13]: 32.5%
- viability, T/C [14]: 38.2%
- viability, T/C [15]: 41.5%
- viability, T/C [16]: 37.5%
- viability, T/C [17]: 51%
- viability, T/C [18]: 31.4%
- viability, T/C [19]: 6.64%
- viability, T/C [20]: 5.37%
- viability, T/C [21]: 5.91%
- viability, T/C [22]: 5.6%
- viability, T/C [23]: 8.96%
- viability, T/C [24]: 6.5%
- viability, T/C [25]: 9.3%
- viability, T/C [26]: 9.76%
- viability, T/C [27]: 6.13%
- viability, T/C [28]: 4.78%
- viability, T/C [29]: 5.85%
- viability, T/C [30]: 4.66%
- viability, T/C [31]: 2.59%
- viability, T/C [32]: 1.73%
- viability, T/C [33]: 2.2%
- viability, T/C [34]: 1.51%
- viability, T/C [35]: 4.91%
- viability, T/C [36]: 3.2%

Structure (SMILES): CCc1c2c(nc3ccc(O)cc13)-c1cc3c(c(=O)n1C2)COC(=O)[C@]3(O)CC
- viability, T/C (compound 0.00316 µM): 69.5% and 53%
- viability, T/C (compound 0.01 µM): 50.6% and 38%
- viability, T/C (compound 0.0316 µM): 50.3% and 45.5%
- viability, T/C (compound 0.1 µM): 41.7% and 39%
- viability, T/C (compound 0.316 µM): 35.8% and 39%
- viability, T/C (compound 1 µM): 8.79% and 15.5%

— PubChem BioAssay AID2060611 (Molecular Pharmacology Branch, DTP, NCI, 2025)
